Source: patent US7632972B2, “Compounds and methods for treatment of cancer and modulation of programmed cell death for melanoma and other cancer cells” (The Board of Trustees of the University of Illionis, priority 2003, dated 2009)

Key:
COLO 205 = experiment: NCI 60 cell line screen (SRB), Colon Cancer; format: cell-based, human
Source text: (§1) The operation of this screen utilizes 60 different human tumor cell lines, representing leukemia, melanoma and cancers of the lung, colon, brain, ovary, breast, prostate, and kidney. The aim is to prioritize for further evaluation, synthetic compounds or natural product samples showing selective growth inhibition or cell killing of particular tumor cell lines. This screen is unique in that the complexity of a 60 cell line dose response produced by a given compound results in a biological response pattern which can be utilized in pattern recognition algorithms. Using these algorithms, it is possible to assign a putative mechanism of action to a test compound, or to determine that the response pattern is unique and not similar to that of any of the standard prototype compounds included in the NCl database (see DTP Overview tab). In addition, following characterization of various cellular molecular targets in the 60 cell lines, it may be possible to select compounds most likely to interact with a specific molecular target.
(§2) The human tumor cell lines of the cancer screening panel are grown in RPMI 1640 medium containing 5% fetal bovine serum and 2 mM L-glutamine. For a typical screening experiment, cells are inoculated into 96 well microtiter plates in 100 μL at plating densities ranging from 5,000 to 40,000 cells/well depending on the doubling time of individual cell lines. After cell inoculation, the microtiter plates are incubated at 37° C., 5% CO2, 95% air and 100% relative humidity for 24 h prior to addition of experimental drugs.
(§3) After 24 h, two plates of each cell line are fixed in situ with TCA, to represent a measurement of the cell population for each cell line at the time of drug addition (Tz). Experimental drugs are solubilized in dimethyl sulfoxide at 400-fold the desired final maximum test concentration and stored frozen prior to use. At the time of drug addition, an aliquot of frozen concentrate is thawed and diluted to twice the desired final maximum test concentration with complete medium containing 50 μg/ml gentamicin. Additional four, 10-fold or ½ log serial dilutions are made to provide a total of five drug concentrations plus control. Aliquots of 100 μl of these different drug dilutions are added to the appropriate microtiter wells already containing 100 μl of medium, resulting in the required final drug concentrations.
(§4) Following drug addition, the plates are incubated for an additional 48 h at 37° C., 5% CO2, 95% air, and 100% relative humidity. For adherent cells, the assay is terminated by the addition of cold TCA. Cells are fixed in situ by the gentle addition of 50 μl of cold 50% (w/v) TCA (final concentration, 10% TCA) and incubated for 60 minutes at 4° C. The supernatant is discarded, and the plates are washed five times with tap water and air dried. Sulforhodamine B (SRB) solution (100 μl) at 0.4% (w/v) in 1% acetic acid is added to each well, and plates are incubated for 10 minutes at room temperature. After staining, unbound dye is removed by washing five times with 1% acetic acid and the plates are air dried. Bound stain is subsequently solubilized with 10 mM trizma base, and the absorbance is read on an automated plate reader at a wavelength of 515 nm. For suspension cells, the methodology is the same except that the assay is terminated by fixing settled cells at the bottom of the wells by gently adding 50 μl of 80% TCA (final concentration, 16% TCA). Using the seven absorbance measurements [time zero, (Tz), control growth, (C), and test growth in the presence of drug at the five concentration levels (Ti)], the percentage growth is calculated at each of the drug concentrations levels. Percentage growth inhibition is calculated as: [(Ti−Tz)/(C−Tz)]×100 for concentrations for which Ti>/=Tz [(Ti−Tz)/Tz]×100 for concentrations for which Ti<Tz.
(§5) Three dose response parameters are calculated for each experimental agent. […]

KM12 = experiment: NCI 60 cell line screen (SRB), Colon Cancer; format: cell-based, human
Source text: as §1, §2, §3, §4, §5

HCT-15 = experiment: NCI 60 cell line screen (SRB), Colon Cancer; format: cell-based, human
Source text: as §1, §2, §3, §4, §5

NCI/ADR-RES = experiment: NCI 60 cell line screen (SRB), Breast Cancer; format: cell-based, human
Source text: as §1, §2, §3, §4, §5

HS 578T = experiment: NCI 60 cell line screen (SRB), Breast Cancer; format: cell-based, human
Source text: as §1, §2, §3, §4, §5

MCF7 = experiment: NCI 60 cell line screen (SRB), Breast Cancer; format: cell-based, human
Source text: as §1, §2, §3, §4, §5

BT-549 = experiment: NCI 60 cell line screen (SRB), Breast Cancer; format: cell-based, human
Source text: as §1, §2, §3, §4, §5

MDA-MB-435 = experiment: NCI 60 cell line screen (SRB), Breast Cancer; format: cell-based, human
Source text: as §1, §2, §3, §4, §5

T-47D = experiment: NCI 60 cell line screen (SRB), Breast Cancer; format: cell-based, human
Source text: as §1, §2, §3, §4, §5

[1] = read-out: LC50 (the source's name)

Compound: COc1cccc(CCNC(=O)CC(c2ccccc2)(c2ccccc2)c2ccccc2)c1 [Compound Z3]
- GI50 (COLO 205; COLO 205): 12.8 µM
- TGI (COLO 205; COLO 205): >1.00E−04
- Percent Growth (COLO 205; COLO 205, Log10 Concentration −4.0): 27%
- Percent Growth (COLO 205; COLO 205, Log10 Concentration −5.0): 53%
- Percent Growth (COLO 205; COLO 205, Log10 Concentration −6.0): 106%
- Percent Growth (COLO 205; COLO 205, Log10 Concentration −7.0): 117%
- Percent Growth (COLO 205; COLO 205, Log10 Concentration −8.0): 99%
- CC50 (COLO 205; COLO 205, read-out: LC50 (the source's name)): > 100 µM
- GI50 (KM12; KM12): 4.75 µM
- TGI (KM12; KM12): >1.00E−04
- Percent Growth (KM12; KM12, Log10 Concentration −4.0): 14%
- Percent Growth (KM12; KM12, Log10 Concentration −5.0): 25%
- Percent Growth (KM12; KM12, Log10 Concentration −6.0): 101%
- Percent Growth (KM12; KM12, Log10 Concentration −7.0): 107%
- Percent Growth (KM12; KM12, Log10 Concentration −8.0): 111%
- CC50 (KM12; KM12, read-out: LC50 (the source's name)): > 100 µM
- GI50 (HCT-15; HCT-15): > 100 µM
- TGI (HCT-15; HCT-15): >1.00E−04
- Percent Growth (HCT-15; HCT-15, Log10 Concentration −4.0): 57%
- Percent Growth (HCT-15; HCT-15, Log10 Concentration −5.0): 62%
- Percent Growth (HCT-15; HCT-15, Log10 Concentration −6.0): 86%
- Percent Growth (HCT-15; HCT-15, Log10 Concentration −7.0): 99%
- Percent Growth (HCT-15; HCT-15, Log10 Concentration −8.0): 103%
- CC50 (HCT-15; HCT-15, read-out: LC50 (the source's name)): > 100 µM
- GI50 (NCI/ADR-RES): 5.26 µM
- TGI (NCI/ADR-RES): >1.00E−04
- Percent Growth (NCI/ADR-RES; Log10 Concentration −4.0): 27%
- Percent Growth (NCI/ADR-RES; Log10 Concentration −5.0): 42%
- Percent Growth (NCI/ADR-RES; Log10 Concentration −6.0): 69%
- Percent Growth (NCI/ADR-RES; Log10 Concentration −7.0): 93%
- Percent Growth (NCI/ADR-RES; Log10 Concentration −8.0): 69%
- CC50 (NCI/ADR-RES; [1]): > 100 µM
- GI50 (HS 578T; MS 578T): > 100 µM
- TGI (HS 578T; MS 578T): >1.00E−04
- Percent Growth (HS 578T; MS 578T, Log10 Concentration −4.0): 55%
- Percent Growth (HS 578T; MS 578T, Log10 Concentration −5.0): 85%
- Percent Growth (HS 578T; MS 578T, Log10 Concentration −6.0): 101%
- Percent Growth (HS 578T; MS 578T, Log10 Concentration −7.0): 126%
- Percent Growth (HS 578T; MS 578T, Log10 Concentration −8.0): 101%
- CC50 (HS 578T; [1]): > 100 µM
- GI50 (MCF7; MCF7): 21.5 µM
- TGI (MCF7; MCF7): >1.00E−04
- Percent Growth (MCF7; MCF7, Log10 Concentration −4.0): 31%
- Percent Growth (MCF7; MCF7, Log10 Concentration −5.0): 60%
- Percent Growth (MCF7; MCF7, Log10 Concentration −6.0): 85%
- Percent Growth (MCF7; MCF7, Log10 Concentration −7.0): 116%
- Percent Growth (MCF7; MCF7, Log10 Concentration −8.0): 91%
- CC50 (MCF7; MCF7, read-out: LC50 (the source's name)): > 100 µM
- GI50 (BT-549; BT-549): > 100 µM
- TGI (BT-549; BT-549): >1.00E−04
- Percent Growth (BT-549; BT-549, Log10 Concentration −4.0): 69%
- Percent Growth (BT-549; BT-549, Log10 Concentration −5.0): 81%
- Percent Growth (BT-549; BT-549, Log10 Concentration −6.0): 107%
- Percent Growth (BT-549; BT-549, Log10 Concentration −7.0): 126%
- Percent Growth (BT-549; BT-549, Log10 Concentration −8.0): 100%
- CC50 (BT-549; BT-549, read-out: LC50 (the source's name)): > 100 µM
- GI50 (MDA-MB-435; MDA-MB-435): 6.5 µM
- TGI (MDA-MB-435; MDA-MB-435): >1.00E−04
- Percent Growth (MDA-MB-435; MDA-MB-435, Log10 Concentration −4.0): 28%
- Percent Growth (MDA-MB-435; MDA-MB-435, Log10 Concentration −5.0): 40%
- Percent Growth (MDA-MB-435; MDA-MB-435, Log10 Concentration −6.0): 91%
- Percent Growth (MDA-MB-435; MDA-MB-435, Log10 Concentration −7.0): 109%
- Percent Growth (MDA-MB-435; MDA-MB-435, Log10 Concentration −8.0): 92%
- CC50 (MDA-MB-435; MDA-MB-435, read-out: LC50 (the source's name)): > 100 µM
- GI50 (T-47D): > 100 µM
- TGI (T-47D): >1.00E−04
- Percent Growth (T-47D; Log10 Concentration −4.0): 84%
- Percent Growth (T-47D; Log10 Concentration −5.0): 55%
- Percent Growth (T-47D; Log10 Concentration −6.0): 78%
- Percent Growth (T-47D; Log10 Concentration −7.0): 108%
- Percent Growth (T-47D; Log10 Concentration −8.0): 78%
- CC50 (T-47D; [1]): > 100 µM
- GI50 (HL-60(TB)): 17.5 µM
- TGI (HL-60(TB)): >1.00E−04
- CC50 (HL-60(TB); read-out: LC50): > 100 µM
